From patent publication US9096536B2, “Asymmetrically substituted anthrapyridazone derivatives as cytostatics” (BS-154 S.P. ZO.O., priority 2011, dated 2015) come the findings set out here.

In assay [1] the test system is human promyelocytic leukemia cell line HL-60. The experiment in a line: Cytostatic activity in vitro, HL-60 sensitive line. Format: cell-based. The note with it: 50% inhibition of cell growth after 72 h continuous exposure; read-out: HL60 IC50. From the text:
(§1) Tables 3 and 4 show cytostatic activity in vitro of 2,6-disubstituted and 2- or 6-monosubstituted (Tab.3), and of 2,5-disubstituted-(Tab.-4) tetracyclic anthrapyridazone derivatives using leukemia cell line HL-60 and the resistant cell sublines with resistance induced by vincristine (MDR-1) or doxorubicin (MRP). Activity of compounds is differentiated depending on their structure, but in all cases resistance indexes are more advantageous in comparison with reference compounds: doxorubicin and mitoxantrone.

The test system of a further assay is HL60/VINC. The experiment in a line: Cytostatic activity in vitro, vincristine-induced resistant subline (MDR-1). Type of assay: cell-based, human. The note with it: for IC50: 72 h continuous exposure; for RI resistance index HL60/VINC: IC50(resistant cells)/IC50(sensitive cells), HL60/VINC vs HL60, 72 h.
From the text: as §1

For a further assay, the system named is HL60/DX. The experiment in a line: Cytostatic activity in vitro, doxorubicin-induced resistant subline (MRP). Type of assay: cell-based, human. The note with it: for IC50: 72 h continuous exposure; for RI resistance index HL60/DX: IC50(resistant cells)/IC50(sensitive cells), HL60/DX vs HL60, 72 h.
From the text: as §1

In assay [2] the test system is human prostate cancer cell line DU145. The assay can be described thus: Cytostatic activity in vitro, prostate cancer DU145. The note with it: 72 h continuous exposure. Format: cell-based. From the text: (§2) Table 5 presents activity in vitro of anthrapiridazone derivatives towards three cell lines of prostate cancer, naturally multidrug resistant, in comparison with references doxorubicin, mitoxantrone and taxol.

In assay [3] the test system is human prostate cancer cell line LNCaP. The assay can be described thus: Cytostatic activity in vitro, prostate cancer LNCaP. Format: cell-based. The note with it: 72 h continuous exposure.
From the text: as §2

The test system of assay [4] is human prostate cancer cell line PC3. The assay can be described thus: Cytostatic activity in vitro, prostate cancer PC3. The note with it: 72 h continuous exposure. Type of assay: cell-based.
From the text: as §2

For another assay, the system named is CT-DNA. The experiment in a line: Interaction with isolated CT-DNA, fluorescence competition with ethidium bromide. Format: binding. As to conditions: for IC50: 50% decrease in fluorescence intensity of DNA-bromide ethydine complex; for Kapp relative constant of DNA-compound bonding: Kapp = (1.26/C50) × KEtBr, KEtBr = 10^7M. From the text:
It could be supposed that this property explains cytostatic activity of compounds. In Table 9 there are presented quantitative data on the affinity to DNA of tested compounds using the fluorescence method and competitive affinity to DNA of bromine ethydine and tested compounds.

Turning to `O=C1c2ccccc2-c2nn(CCN3CCCCC3)c(=O)c3ccc(NCCNCc4ccccc4)c1c23` [PDZ-17, 2-[2-(Piperidinamino)ethyl]-6-(2-benzylaminoethylamino)-2,7-dihydro-3H-dibenzo [de,h]cynnoline-3,7-dione], the IC50 in assay [1] amounted to 98 ± 19 nM; with HL60/VINC it was 477 ± 39 nM; in the assay with HL60/DX it was 2870 ± 447 nM; in assay [2] it was 344 ± 43 nM; in assay [3], 166 ± 40 nM; in assay [4], 606 ± 38 nM. For the same molecule, the IC50 with CT-DNA turned out to be 460 ± 80 nM. The “RI resistance index HL60/VINC” value in the assay with HL60/VINC is recorded as 4.9. Also, the “RI resistance index HL60/DX” value with HL60/DX stood at 29.3. The same molecule yielded a Kapp relative constant of DNA-compound bonding in the assay with CT-DNA of 2.72e+07 M⁻¹.

With `O=C1c2ccccc2-c2n[nH]c(=O)c3ccc(NCCNCc4ccccc4)c1c23` [PDZ-10, 6-(2-Benzylaminoetyloamino)-2,7-dihydro-3H-dibenzo[de,h]cynnoline-3,7-dione], the IC50 in assay [1] was 758 ± 115 nM; in the assay on HL60/VINC it was 1160 ± 93 nM; with HL60/DX, 2770 ± 494 nM; in assay [2], 2090 ± 583 nM; in assay [3], 1550 ± 363 nM; in assay [4], 3010 ± 264 nM. The same molecule displayed an IC50 in the assay on CT-DNA of 3150 ± 150 nM. Besides, the “RI resistance index HL60/VINC” value with HL60/VINC amounted to 1.5. Besides, the “RI resistance index HL60/DX” value with HL60/DX was 3.7. In the assay with CT-DNA, this molecule came in with a Kapp relative constant of DNA-compound bonding of 4e+06 M⁻¹.

Turning to `CCNCCNc1ccc2c(=O)n(CCN(C)C)nc3c2c1C(=O)c1ccccc1-3` [Compound C-180, 2-[2-(Dimethylamino)ethyl]-6-{[2-(ethylamino)ethyl]amino}-2,7-dihydro-3H-dibenzo[de,h]cynnoline-3,7dione], the IC50 in assay [1] was determined as 2.2 ± 0.1 nM; in the assay with HL60/VINC it was 8.7 ± 0.4 nM; with HL60/DX, 364 ± 36 nM; in assay [2], 22.6 ± 5.2 nM; in assay [3], 11 ± 1.4 nM; in assay [4], 75.2 ± 16.2 nM. Besides, in the assay with CT-DNA, the IC50 stood at 280 ± 50 nM. In the assay with HL60/VINC, the “RI resistance index HL60/VINC” value is 4.0. Further, the “RI resistance index HL60/DX” value in the assay with HL60/DX is recorded as 165.5. Further, the Kapp relative constant of DNA-compound bonding in the assay on CT-DNA stood at 4.53e+07 M⁻¹.

Regarding `CCN(CC)CCNc1ccc2c(=O)n(CCN(C)C)nc3c2c1C(=O)c1ccccc1-3` [Compound C-155, 2-[2-(Dimethylamino)ethyl]-6-{[(2-diethylamino)ethyl]amino}-2,7-dihydro-3H-dibenzo[de,h]cynnoline-3,7-dione], the IC50 in assay [1] was determined as 19 ± 4 nM; with HL60/VINC, 116 ± 28 nM; with HL60/DX, 446 ± 100 nM; in assay [2] it was 71.4 ± 21.6 nM; in assay [3] it was 26.2 ± 7.2 nM; in assay [4] it was 144 ± 32.7 nM. For the same molecule, the IC50 in the assay with CT-DNA turned out to be 310 ± 10 nM. In the assay on HL60/VINC, the “RI resistance index HL60/VINC” value was 6.1. In addition, the “RI resistance index HL60/DX” value in the assay with HL60/DX is given as 23.5. In the assay with CT-DNA, the Kapp relative constant of DNA-compound bonding turned out to be 4.02e+07 M⁻¹.

As for `CC(=O)NCCCNc1ccc2c(=O)n(CCN(C)C)nc3c2c1C(=O)c1ccccc1-3` [PDZ-13, 2-[2-(Dimethylamino)ethyl]-6-[(3-acetylaminopropyl)amino]-2,7-dihydro-3H-dibenzo [de,h]cynnoline-3,7-dione], the IC50 in assay [1] was determined as 13 ± 1 nM; with HL60/VINC, 421 ± 24 nM; in the assay on HL60/DX, 3240 ± 558 nM; in assay [2], 36.7 ± 7.4 nM; in assay [3], 50.7 ± 10.2 nM; in assay [4] it was 106 ± 5.7 nM. This molecule also showed an IC50 in the assay on CT-DNA of 1840 ± 160 nM. Also, the “RI resistance index HL60/VINC” value in the assay on HL60/VINC is 32.4. For the same molecule, the “RI resistance index HL60/DX” value with HL60/DX is listed as 249.2. The molecule also showed a Kapp relative constant of DNA-compound bonding with CT-DNA of 6.8e+06 M⁻¹.

For the molecule `CN(C)CCNc1ccc2c(=O)n(CCO)nc3c2c1C(=O)c1ccccc1-3` [Compound C-167, 2-(2-Hydroxyethyl)-6-(2-dimethylamino)ethylamino-2H-dibenzo[de,h]cynnoline-3,7-dione], the IC50 in assay [1] was 111 ± 27 nM; in the assay with HL60/VINC it was 393 ± 45 nM; in the assay on HL60/DX, 1240 ± 206 nM; in assay [2], 294 ± 53 nM; in assay [3], 202 ± 35 nM; in assay [4] it was 776 ± 45 nM. The molecule also showed an IC50 in the assay with CT-DNA of 2040 ± 70 nM. In the assay with HL60/VINC, the “RI resistance index HL60/VINC” value was determined as 3.5. In addition, in the assay with HL60/DX, the “RI resistance index HL60/DX” value is 11.1. This molecule registered a Kapp relative constant of DNA-compound bonding in the assay with CT-DNA of 6.2e+06 M⁻¹.

For orientation: IC50 means the point on the concentration scale where inhibition reaches its midpoint.
